Columns and labels:
[1] = tested on: Wnt/β-catenin signaling pathway; test: TOP-Flash luciferase reporter Wnt functional assay in NPCs; format: cell-based, human; settings: PTHS NPCs; CHIR99021 (FIG. 16D)
Source text: TOP-Flash luciferase reporter Wnt functional assay. For assessing levels of Wnt signaling, 70% confluent cultures of NPCs in 24-well plates (with Neural Progenitor Medium from StemCell Technologies) were transfected with the M50 Super 8×TOPFlash plasmid (Addgene #12456; [http:/]/n2t.net/addgene:12456; RRID:Addgene_12456; referred to as TOP-Flash luciferase reporter plasmid), which is used to assess β-catenin-mediated transcriptional activation. This plasmid contains a minimal TA viral promoter driving the expression of a firefly luciferase gene preceded by seven binding sites ([…]; SEQ ID NO:1) for TCF/LEF (Veeman et al., 2003), not to be confused with TCF4. Control NPCs were transfected with M51 Super8×TOPflash plasmids, which have mutant TCF/LEF binding sites (Addgene plasmid #12457; [http:/]/n2t.net/addgene:12457; RRID:Addgene_12457).
Transfection was performed using the Amaxa Nucleofaction Mouse Neural Stem Cell Nucleofector kit for NPCs (Lonza), using the manufacturer's recommendations. After 24 h, medium was replenished and the luciferase assay was performed using the Pierce Firefly Luciferase Flash Assay Kit (Thermo Fisher Scientific) on a sample of 50,000 cells, using a Synergy microplate reader (BioTek Instruments). […] Activity levels were expressed as arbitrary units normalized against the mean activity in the respective controls. […]

CtOs or sPOs = test: Wnt signaling manipulation in brain organoids (size, immunostaining, single cell RNA-Seq); format: cell-based, human
Protocol: Immunofluorescence staining. After being cultured in vitro for the required amount of time, CtOs and sPOs were fixed with 4% paraformaldehyde for 4-8 h at 4° C. and cryoprotected in 30% sucrose for 12 h. Organoids were then embedded in TissueTek (Leica Microsystems) and sectioned on a Leica VT1000S cryostat to produce 20 μm sections. For staining, slides were air dried for 10 min, permeabilized in […] for 2 min, and blocked with […] for 1 h at 25° C., followed by incubation with primary antibodies in the same solutions, for 16 h at 4° C. […] After further washes in 1×PBS, slides were counterstained with DAPI solution (1 μg/mL) for 45 min and mounted with ProLong Gold. All images were taken using a Zeiss fluorescence microscope equipped with Apotome (Axio Observer Apotome, Zeiss). For projections of z series stacked images of DCX-stained organoids, the maximum intensity feature of ZEN software (Zeiss) was used, after collecting 10 optical slices per section. For p16^INK4a staining, antigen retrieval was performed by incubating the slides at 60° C. for 10 min in 1× Universal HIER antigen retrieval reagent (Abcam; ab208572), followed by regular immunostaining. For counting SOX2+ cells after p16^INK4a co-staining (FIG. 15J), raw unprocessed images were used, and defined strongly stained cells as those which had average pixel intensity between the upper third quartile and the maximum pixel intensity in each image. Remaining SOX2+ cells were considered weakly stained.
For quantification of cell types in organoid sections, 4 random 100×100 μm regions of interest (ROI) were sampled across each imaged section. The mean number of labeled cells per sample was calculated by first averaging the number of labeled cells in each ROI to produce a mean value of labeled cells per section, and then averaging these mean values across all sections for each subject. […] The average percentage of pixels according to these rules was computed over four 100×100 μm ROIs per section and 6 sections per subject.
Organoid single cell RNA sequencing analysis. CtOs and sPOs were dissociated to produce a single cell suspension via a combination of mechanical dissociation with forceps and enzymatic digestion with Accutase for 10 min. For each library, a total of 15 organoids were dissociated and the resulting cells were pooled and subsequently filtered to isolate single cells for RNA sequencing analysis on the same day. Dissociated cells were pelleted (3 min, 100× g, 4° C.) and resuspended in 10 mL of Neurobasal medium. […] Single cell RNA-seq libraries were prepared using the Chromium Single Cell 3′ v3 Library kit (10× Genomics) according to the manufacturer's protocol. Approximately 20,000 cells were loaded per sample on the Chromium chip. All steps, including GEM (Gel beads in emulsion) preparation, reverse transcription, PCR amplification, and Illumina library construction were carried out on a T100 thermal cycler (Bio-Rad). cDNA extracted from GEMs was cleaned up using MyOne Silane Beads (Thermo Fisher Scientific), PCR-amplified for a total of 10 cycles, and then purified using SPRIselect Reagent Kit (B23317, Beckman Coulter). Next, the cDNA pool was enzymatically fragmented for each library and a double size selection was performed using the SPRIselect Reagent Kit. Finally, Illumina adapters were ligated to prepare libraries for sequencing, followed by another round of double size selection with the SPRIselect Reagent Kit. […] Illumina libraries were quantified using Qubit dsDNA HS Assay Kit (Thermo Fisher Scientific) and size quality control was performed on a High Sensitivity D1000 tapestation (Agilent).

Cc1c[nH]c(-c2cnc(NCCNc3ccc(C#N)cn3)nc2-c2ccc(Cl)cc2Cl)n1 [CHIR99021]
Wnt signaling activity (TOP-Flash) [1]: increased | percentage of subpallial-type neural progenitors (CtOs or sPOs; CHIR99021-treated CtOs (FIG. 16H)): increased percentage | progenitor population (single cell RNA-Seq) (CtOs or sPOs; CHIR99021-treated PTHS CtOs and sPOs (FIGS. 16G-H)): increase in the progenitor population | neural rosettes (CtOs or sPOs; PTHS CtOs, CHIR99021): reappearance of conspicuous neural rosettes | NPC content (SOX2+ cells) (CtOs or sPOs; PTHS CtOs, CHIR99021 1 μM (FIG. 9K)): significant increase | organoid size (CtOs or sPOs; PTHS CtOs, CHIR99021 1 μM (FIG. 16F)): significant increase in organoid size | TCF4 levels in neural progenitors of the organoid's 3D structure (CtOs or sPOs; PTHS sPOs, CHIR (FIG. 16J)): do not exhibit an increase in TCF4 levels | expression of subpallial markers (GAD1, GAD2) (CtOs or sPOs; parent and PTHS CHIR99021-treated organoids (FIG. 16I)): higher | progenitor content (CtOs or sPOs; parent organoids, CHIR (FIG. 9K)): does not lead to an increase | organoid size (CtOs or sPOs; parent organoids, CHIR (FIG. 16F)): does not lead to an increase

— patent US20230372542A1, “COMPOSITION AND METHODS FOR MODULATING TCF4 GENE EXPESSION AND TREATING PITT HOPKINS SYNDROME” (The Regents of the University of California, priority 2020, published 2023)
